According to patent US20240116985A1, “STAPLED PEPTIDES AND METHODS THEREOF” (priority 2020, published 2024):
Read-outs that look alike come from different tables or passages of the source.

Legend:
[1] = molecular target: T1, full-length beta-Catenin (Uniprot ID P35222) (Homo sapiens, UniProt P35222); experiment: Fluorescence polarization IC50 (beta-catenin / 5FAM-TCF4 10-53 competition); assay type: binding
T1 construct: 10 nM full-length beta-Catenin (Uniprot ID P35222)
T1 sequence (P35222 1-781): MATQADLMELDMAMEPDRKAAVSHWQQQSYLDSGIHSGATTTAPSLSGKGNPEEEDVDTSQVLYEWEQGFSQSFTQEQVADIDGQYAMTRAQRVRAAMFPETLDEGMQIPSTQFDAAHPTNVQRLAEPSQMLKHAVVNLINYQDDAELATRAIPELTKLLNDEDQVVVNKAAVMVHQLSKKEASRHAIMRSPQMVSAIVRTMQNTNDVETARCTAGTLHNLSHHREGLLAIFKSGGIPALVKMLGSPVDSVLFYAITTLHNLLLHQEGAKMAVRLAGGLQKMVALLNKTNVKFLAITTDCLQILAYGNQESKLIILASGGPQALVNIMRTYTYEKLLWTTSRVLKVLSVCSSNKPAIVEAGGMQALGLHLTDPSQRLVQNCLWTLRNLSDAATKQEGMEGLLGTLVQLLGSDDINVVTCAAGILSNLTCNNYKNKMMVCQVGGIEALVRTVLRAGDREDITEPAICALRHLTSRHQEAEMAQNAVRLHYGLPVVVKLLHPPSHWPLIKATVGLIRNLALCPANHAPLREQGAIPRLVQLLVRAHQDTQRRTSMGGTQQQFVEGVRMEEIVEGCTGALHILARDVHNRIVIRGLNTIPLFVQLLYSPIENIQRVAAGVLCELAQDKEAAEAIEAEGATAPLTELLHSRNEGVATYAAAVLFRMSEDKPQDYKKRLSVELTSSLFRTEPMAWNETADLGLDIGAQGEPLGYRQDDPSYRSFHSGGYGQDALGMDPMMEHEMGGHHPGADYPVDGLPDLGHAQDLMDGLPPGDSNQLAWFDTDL

CHI Log D procedure = assay type: physicochemical; conditions: for chromatographic logD: pH 7.4, CHI Log D; for CHI Log D: pH 7.4
[2] = Table E2-1, read-out: beta-Catenin FP IC50
[3] = fluorescence polarization, beta-catenin, read-out: FP EC50

| IC50 [1, 2] [µM] | chromatographic logD (CHI Log D procedure) | IC50 [1, 3] [µM] | CHI Log D (CHI Log D procedure) | Compound |
| --- | --- | --- | --- | --- |
| 3.11 | 2.27 |  |  | CC(=O)N1CCC[C@]12CC=CCCCC1(CCCC=CCCCCCC[C@@](C)(C(=O)N[C@@H](Cc3ccccc3)C(=O)N[C@@H](Cc3ccc4ccccc4c3)C(=O)N[C@@H](CCC(N)=O)C(N)=O)NC(=O)[C@H](C(C)C)NC(=O)[C@H](Cc3ccc(F)c(F)c3)NC(=O)[C@H](C)NC(=O)[C@H](C)NC(=O)[C@H](CCC(=O)O)NC(=O)[C@H](CC(=O)O)NC1=O)NC(=O)[C@H](C)NC(=O)[C@H](CC(=O)O)NC2=O (stereo partly drawn) [I-184, Ac-PL3-Asp-Ala-B5-Asp-Glu-Ala-Ala-34FF-Val-S8-Phe-2NapA-Gln-NH2] |
| 3.32 |  | 3.32 | 2.083 | CC(=O)N1CCC[C@]12CC=CCCCC1(CCCC=CCCCCCC[C@@](C)(C(=O)N[C@@H](Cc3ccccc3)C(=O)N[C@@H](Cc3c[nH]c4ccccc34)C(=O)N[C@@H](C)C(N)=O)NC(=O)[C@H](C)NC(=O)[C@H](Cc3ccccc3)NC(=O)[C@H](C)NC(=O)[C@H](C)NC(=O)[C@H](CCC(=O)O)NC(=O)[C@H](CC(=O)O)NC1=O)NC(=O)[C@H](C)NC(=O)[C@H](CC(=O)O)NC2=O (stereo partly drawn) [I-187, Ac-PL3-Asp-Ala-B5-Asp-Glu-Ala-Ala-Phe-Ala-S8-Phe-Trp-Ala-NH2] |
| 5 | 2.37 |  |  | CC(=O)N1CCC[C@]12CC=CCCCC1(CCCC=CCCCCCC[C@@](C)(C(=O)N[C@@H](Cc3ccccc3)C(=O)N[C@@H](Cc3c[nH]c4ccccc34)C(=O)N[C@@H](CCC(N)=O)C(N)=O)NC(=O)[C@H](C(C)C)NC(=O)[C@H](Cc3ccccc3)NC(=O)[C@H](C)NC(=O)[C@H](C)NC(=O)[C@H](CCC(=O)O)NC(=O)[C@H](CC(N)=O)NC1=O)NC(=O)[C@H](C)NC(=O)[C@H](CC(=O)O)NC2=O (stereo partly drawn) [I-198, Ac-PL3-Asp-Ala-B5-Asn-Glu-Ala-Ala-Phe-Val-S8-Phe-Trp-Gln-NH2] |
| 5 | 2.06 |  |  | CC(=O)N1CCC[C@]12CC=CCCCC1(CCCC=CCCCCCC[C@@](C)(C(=O)N[C@@H](Cc3cccc(F)c3)C(=O)N[C@@H](Cc3c[nH]c4ccccc34)C(=O)N[C@@H](CCC(N)=O)C(N)=O)NC(=O)[C@H](C(C)C)NC(=O)[C@H](Cc3ccccc3)NC(=O)[C@H](C)NC(=O)[C@H](C)NC(=O)[C@H](CC(=O)O)NC(=O)[C@H](CC(=O)O)NC1=O)NC(=O)[C@H](C)NC(=O)[C@H](CC(=O)O)NC2=O (stereo partly drawn) [I-260, Ac-PL3-Asp-Ala-B5-Asp-Asp-Ala-Ala-Phe-Val-S8-3FF-Trp-Gln-NH2] |
| 5 | 2.01 |  |  | CC(=O)N1CCC[C@]12CC=CCCCC1(CCCC=CCCCCCC[C@@](C)(C(=O)N[C@@H](Cc3ccc(F)cc3)C(=O)N[C@@H](Cc3c[nH]c4ccccc34)C(=O)N[C@@H](CCC(N)=O)C(N)=O)NC(=O)[C@H](C(C)C)NC(=O)[C@H](Cc3ccccc3)NC(=O)[C@H](C)NC(=O)[C@H](C)NC(=O)[C@H](CC(=O)O)NC(=O)[C@H](CC(=O)O)NC1=O)NC(=O)[C@H](C)NC(=O)[C@H](CC(=O)O)NC2=O (stereo partly drawn) [I-261, Ac-PL3-Asp-Ala-B5-Asp-Asp-Ala-Ala-Phe-Val-S8-4FF-Trp-Gln-NH2] |
| 5 | 2.02 |  |  | CC(=O)N1CCC[C@]12CC=CCCCC1(CCCC=CCCCCCC[C@@](C)(C(=O)N[C@@H](Cc3ccccc3)C(=O)N[C@@H](Cc3c[nH]c4ccccc34)C(=O)N[C@@H](CCC(N)=O)C(N)=O)NC(=O)[C@H](C(C)C)NC(=O)[C@H](Cc3ccc(F)cc3)NC(=O)[C@H](C)NC(=O)[C@H](C)NC(=O)[C@H](CC(=O)O)NC(=O)[C@H](CC(=O)O)NC1=O)NC(=O)[C@H](C)NC(=O)[C@H](CC(=O)O)NC2=O (stereo partly drawn) [I-266, Ac-PL3-Asp-Ala-B5-Asp-Asp-Ala-Ala-4FF-Val-S8-Phe-Trp-Gln-NH2] |
| 5 | 2.5 |  |  | CC(=O)N1CCC[C@]12CC=CCCCC1(CCCC=CCCCCCC[C@@](C)(C(=O)N[C@@H](Cc3ccccc3)C(=O)N[C@@H](Cc3c[nH]c4ccccc34)C(=O)N[C@@H](CCC(N)=O)C(N)=O)NC(=O)[C@H](C(C)C)NC(=O)[C@H](Cc3ccccc3)NC(=O)[C@H](C)NC(=O)[C@H](C)NC(=O)[C@H](Cc3ccccn3)NC(=O)[C@H](CC(=O)O)NC1=O)NC(=O)[C@H](C)NC(=O)[C@H](CC(=O)O)NC2=O (stereo partly drawn) [I-270, Ac-PL3-Asp-Ala-B5-Asp-2PyrA-Ala-Ala-Phe-Val-S8-Phe-Trp-Gln-NH2] |
| 4.48 | 2.01 |  |  | CC(=O)N1CCC[C@]12CC=CCCCC1(CCCC=CCCCCCC[C@@](C)(C(=O)N[C@@H](Cc3ccccc3)C(=O)N[C@@H](Cc3c[nH]c4ccccc34)C(=O)N[C@@H](C)C(N)=O)NC(=O)[C@H](C)NC(=O)[C@H](Cc3ccccc3)NC(=O)[C@H](C)NC(=O)[C@H](C)NC(=O)[C@H](CC(=O)O)NC(=O)[C@H](CC(=O)O)NC1=O)NC(=O)[C@H](C)NC(=O)[C@H](CC(=O)O)NC2=O (stereo partly drawn) [I-286, Ac-PL3-Asp-Ala-B5-Asp-Asp-Ala-Ala-Phe-Ala-S8-Phe-Trp-Ala-NH2] |
| 3.29 |  | 3.29 | 2.271 | CC(=O)N1CCC[C@]12CC=CCCCC1(CCCC=CCCCCCC[C@@](C)(C(=O)N[C@@H](Cc3ccccc3)C(=O)N[C@@H](Cc3c[nH]c4ccccc34)C(N)=O)NC(=O)[C@H](C(C)C)NC(=O)[C@H](Cc3ccccc3)NC(=O)[C@H](C)NC(=O)[C@H](C)NC(=O)[C@H](CC(=O)O)NC(=O)[C@H](CC(=O)O)NC1=O)NC(=O)[C@H](C)NC(=O)[C@H](CC(=O)O)NC2=O (stereo partly drawn) [I-290, Ac-PL3-Asp-Ala-B5-Asp-Asp-Ala-Ala-Phe-Val-S8-Phe-Trp-NH2] |
| 4.2 |  | 4.2 | 2.055 | CC(=O)N1CCC[C@]12CC=CCCCC1(CCCC=CCCCCCC[C@@](C)(C(=O)N[C@@H](Cc3ccccc3)C(=O)N[C@@H](Cc3c[nH]c4ccccc34)C(=O)N[C@@H](CCC(N)=O)C(N)=O)NC(=O)[C@H](C(C)C)NC(=O)[C@H](Cc3cccc(Cl)c3)NC(=O)[C@H](C)NC(=O)[C@H](C)NC(=O)[C@H](CC(=O)O)NC(=O)[C@H](CC(=O)O)NC1=O)NC(=O)[C@H](C)NC(=O)[C@H](CC(=O)O)NC2=O (stereo partly drawn) [I-307, Ac-PL3-Asp-Ala-B5-Asp-Asp-Ala-Ala-3C1F-Val-S8-Phe-Trp-Gln-NH2] |
| 5 | 2.02 |  |  | CC(=O)N1CCC[C@]12CC=CCCCC1(CCCC=CCCCCCC[C@@](C)(C(=O)N[C@@H](Cc3ccccc3)C(=O)N[C@@H](Cc3c[nH]c4ccccc34)C(=O)N[C@@H](CCC(N)=O)C(N)=O)NC(=O)[C@H](C(C)C)NC(=O)[C@H](Cc3ccccc3F)NC(=O)[C@H](C)NC(=O)[C@H](C)NC(=O)[C@H](CC(=O)O)NC(=O)[C@H](CC(=O)O)NC1=O)NC(=O)[C@H](C)NC(=O)[C@H](CC(=O)O)NC2=O (stereo partly drawn) [I-317, Ac-PL3-Asp-Ala-B5-Asp-Asp-Ala-Ala-2FF-Val-S8-Phe-Trp-Gln-NH2] |
| 1.44 |  | 1.44 | 2.084 | CC(=O)N1CCC[C@]12CC=CCCCC1(CCCC=CCCCCCC[C@@](C)(C(=O)N[C@@H](Cc3ccccc3)C(=O)N[C@@H](Cc3csc4ccccc34)C(=O)N[C@@H](CCC(N)=O)C(N)=O)NC(=O)[C@H](C)NC(=O)[C@H](Cc3ccccc3C)NC(=O)[C@H](C)NC(=O)[C@H](C)NC(=O)[C@H](CC(=O)O)NC(=O)[C@H](CC(=O)O)NC1=O)NC(=O)[C@H](C)NC(=O)[C@H](CC(=O)O)NC2=O (stereo partly drawn) [I-366, Ac-PL3-Asp-Ala-B5-Asp-Asp-Ala-Ala-2MeF-Ala-S8-Phe-BztA-Gln-NH2] |
| 0.177 | 2.15 |  |  | CC(=O)N1CCC[C@]12CC=CCCCC1(CCCC=CCCCCCC[C@@](C)(C(=O)N[C@@H](Cc3ccccc3C)C(=O)N[C@@H](Cc3csc4ccccc34)C(=O)N[C@@H](CCC(N)=O)C(N)=O)NC(=O)[C@H](C)NC(=O)[C@H](Cc3ccccc3)NC(=O)[C@H](C)NC(=O)[C@H](C)NC(=O)[C@H](CC(=O)O)NC(=O)[C@H](CC(=O)O)NC1=O)NC(=O)[C@H](C)NC(=O)[C@H](CC(=O)O)NC2=O (stereo partly drawn) [I-367, Ac-PL3-Asp-Ala-B5-Asp-Asp-Ala-Ala-Phe-Ala-S8-2MeF-BztA-Gln-NH2] |
| 5 | 2.17 |  |  | CC(=O)N1CCC[C@]12CC=CCCCC1(CCCC=CCCCCCC[C@@](C)(C(=O)N[C@@H](Cc3ccccc3)C(=O)N[C@@H](Cc3cccc4ccc(F)cc34)C(=O)N[C@@H](CCC(N)=O)C(N)=O)NC(=O)[C@H](C(C)C)NC(=O)[C@H](Cc3ccccc3)NC(=O)[C@H](C)NC(=O)[C@H](C)NC(=O)[C@H](CC(=O)O)NC(=O)[C@H](CC(=O)O)NC1=O)NC(=O)[C@H](C)NC(=O)[C@H](CC(=O)O)NC2=O (stereo partly drawn) [I-368, Ac-PL3-Asp-Ala-B5-Asp-Asp-Ala-Ala-Phe-Val-S8-Phe-7F1NapA-Gln-NH2] |
